Measurements reported in patent US20220411397A1, “ANALOGUES OF N-ACYL-HOMOSERINE LACTONES AND PHARMACEUTICAL COMPOSITION COMPRISING SAME” (SORBONNE UNIVERSITE, priority 2019, published 2022).

Legend:
E. coli K12 strain = experiment: Bactericidal dosage on the E. coli K12 strain (absorbance at 600 nm); format: cell-based; conditions: all concentrations, maximum 100 μM shown; 18 h
Description: 1.1.4. Bactericidal Dosage • The K12 strain of E. coli was grown on agar on day 0 and a colony was transferred to the LYBHI liquid bacterial culture medium on day 1. On day 2, the colony was diluted 1:100 in LYBHI medium and amplified for 18 hours before transfer to an opaque 96-well plate. In each well, LYBHI, controls or increasing doses of tested molecules and bacteria were distributed. The absorbance at 600 nm was read at start-up (t=0) and after an 18-hour incubation. The raw absorbance values were corrected using the absorbance of solutions without bacteria. All experiments were performed twice, each with 4 replicates.
The E. coli K12 strain was cultured at D0 on agar gel, and then a selected colony was transferred to a liquid bacterial culture LYBHI medium at D1. At day 2, this colony was diluted 1:100 in LYBHI medium, and maintained for 18 hours for expansion before distribution in an opaque 96-well plate. In each well were distributed: LYBHI medium, bacterial culture, and test or control compounds. The absorbance of the wells was read at 600 nm at t0 and t18h. The raw absorbance values were corrected against the absorbance of the wells containing only LYBHI medium without bacteria or compounds.

Caco-2/TC7 cells [1] = experiment: Cytotoxicity test, LDH secretion, Caco-2/TC7; format: cell-based; conditions: for cytotoxicity (LDH), Caco-2/TC7: stimulated, low concentrations; for LDH secretion at the higher concentrations: ≥50 μM
Description: (§1) 1.2.6. […] To measure the concentration of LDH in the cell lysate, 800 μL of NADH was added to 10 μL of […] and 190 μL of 0.1 M PBS in a plastic cuvette, and the decrease in the absorbance at 340 nm was monitored for 1 min. […] The percentage of cytotoxicity could be established with the formula: […]
(§2) The cytotoxicity of the tested and control compounds was evaluated using a measurement test of the LDH (Lactate Dehydrogenase) secretion. This test is based on the measurement of the amount of LDH secreted by the cells in their supernatant, compared to the amount of LDH that will remain in the intracellular compartment. This ratio provides an indication of the membrane damage suffered by the cells, and thus of the cytotoxicity of the compound.
(§3) Two methods were used to perform this test: the measurement using an extemporaneously prepared pyruvate/NADH solution, or using the Cytotoxicity Detection Kit^PLUS(LDH) from the manufacturer Roche (Sigma-Aldrich).
(§4) Pyruvate/NADH method: pyruvate/NADH solution prepared with 4.1 mg pyruvic acid (0.62 mM) and 7.7 mg NADH (0.18 mM) in 60 ml of 0.1M PBS (pH 7.4).
(§5) For the measurement of the LDH concentration in the supernatants, 800 μL of NADH was added to 200 μL of supernatant in plastic spectrometry cuvettes, and the decrease in absorbance of the final solution was read at 340 nm for 1 min. For the measurement of the LDH concentration in the cell lysates, 800 μL of NADH was added to 10 μL of cell lysates and 190 μL of 0.1M PBS in plastic spectrometry cuvettes, and the decrease in absorbance of the final solution was read at 340 nm for 1 min. The percentage of LDH secreted was then calculated by the ratio of the decay slopes of the absorbance of the supernatants and of the cell lysates (respectively).
(§6) Cytotoxicity Detection Kit^PLUS (LDH) method: absorbance test performed according to the manufacturer's instructions. The percentage of LDH secreted was then calculated by the formula: […]

Raw264.7 murine cells = experiment: Cytotoxicity test, LDH secretion, Raw264.7; format: cell-based; conditions: for cytotoxicity (LDH), Raw264.7: stimulated, low concentrations
Description: as §1, §2, §3, §4, §5, §6

Caco-2/TC7 cells [2] = experiment: Stimulation of Caco-2/TC7 cells by IL-1β, IL-8 secretion (ELISA); format: cell-based, human
Description: 1.1.1. The Caco-2/TC7 Cell Line • The Caco-2 cell line is derived from a human colon adenocarcinoma and represents a cell culture model of enterocytes lining the epithelium of the small intestinal. […] During the exponential growth phase (from seeding to confluence), the cells remain undifferentiated. At confluence, they can spontaneously (in the absence of differentiation inducers) differentiate and progressively polarize. The differentiation process, which is a growth-related mechanism, is maximal at the end of confluence (stationary phase of the growth curve). • The cells develop a brush border at the apical pole containing microvilli and with characteristic enterocytic enzymes, such as hydrolases. • In accordance with the published literature, the Caco-2/TC7 cells in our experiments were seeded at 10^5 cells/well (equivalent to 10-12×10^3 cells/cm^2) in 6-well plastic culture plates. The cells were maintained in a glucose-rich medium (high glucose in the DMEM GlutaMAX medium 4.5 g/I glucose) supplemented with 20% heat-inactivated foetal calf serum, 1% nonessential amino acids NEAA, and 1% penicillin streptomycin. The cells were grown at 37° C. in a 10% CO2/air atmosphere. The medium was changed every day. Under these conditions, the cells were confluent on day 6. On day 17, the cells were serum-starved, and were used on day 18.
1.2.1. Stimulation of Caco-2/TC7 with Cytokines • The Caco-2/TC7 cells were seeded in 6-well plates at 100,000 cells/well and grown for 18 days. On day 17, the cells were serum-starved, which means that the cell medium was replaced with a foetal calf serum-free medium, and used on day 18. • The stimulation medium was composed of a medium referred to as “starvation medium”, i.e. without foetal calf serum (DMEM GlutaMAX, 1% NEAA, 1% penicillin-streptomycin) with 100 μM of 2-HQ. The cells were incubated for 18 h at 37° C. with 2 ml of stimulation medium containing 0.1% DMSO (negative control) or stimulation medium containing the compounds tested at desired concentrations, with or without proinflammatory cytokines to induce an inflammation. To induce the inflammation, either the IL-1β at 25 ng/ml or the combination of TNF-α and IFN-γ at 50 ng/ml each were used. After 18 h, the supernatants were collected and stored at −80° C. before analysis by ELISA test. The cells were washed with 1 ml of PBS 1×/well, and lysed in 100 μl of PBS 1× containing 1% Triton X-100. The cells were harvested by scraping and stored at −80° C. before the quantification of the protein. The dosing of the LDH was performed immediately before freezing. • All the experiments on the cells were performed in triplicates.
1.2.4. Quantification of the Human Cytokines by ELISA • The levels of the proinflammatory cytokine IL-8 produced by the cells were determined in the cell supernatants and/or cell lysates using the commercially available IL-8 ELISA detection kit (Duoset Human C×CL8/IL-8, ref. DY208) provided by R & D Systems (Minneapolis, Minn., USA) according to the instructions of the manufacturer. • All the cytokine levels were first normalized to the protein content determined in the corresponding cell lysates. Then, to compare the experiments, they could be further normalized using the activated control condition (DMSO+cytokines) as the 100% response.

[3] = Resistance to hydrolysis giving the open form; format: physicochemical
human keratinocytes = experiment: Inhibition of IL-8 secretion by human keratinocytes stimulated by IL-17 and TNF-α; format: cell-based; conditions: keratinocytes stimulated by IL-17 and TNF-α
[4] = any of the concentrations tested

## CCCCCCCCCC(=O)CC(=O)N[C@H]1CCCC[C@H]1O [I-4, N-[(1S,2R)-2-hydroxycyclohexyl]-3-oxo-dodecanamide]
E. coli K12 strain
  comparative survival of E. coli K12: No significant differences
Caco-2/TC7 cells [1]; Caco-2/TC7, at 100 μM
  LDH secretion: 9%
Caco-2/TC7 cells [1]
  cytotoxicity (LDH), Caco-2/TC7: not cytotoxic at low concentrations
  LDH secretion at the higher concentrations: an increase in LDH secretion
Raw264.7 murine cells; at 50 μM
  toxicity (LDH), Raw264.7: toxic
Raw264.7 murine cells; at all concentrations
  LDH secreted compared with the diastereomer, Raw264.7: greater than that secreted in the presence of (S,S)-3oxoC12-ACH
Raw264.7 murine cells
  cytotoxicity (LDH), Raw264.7: not cytotoxic at low concentrations
Caco-2/TC7 cells [2]; 1-50 μM range
  activity on IL-1β-stimulated Caco-2/TC7 cells compared with natural 3-oxo-C12 HSL: an activity equivalent to that of the natural 3-oxo-C12 HSL

## CCCCCCCCCC(=O)CC(=O)N[C@H]1CCCC[C@@H]1O [I-2, N-[(1S,2S)-2-hydroxycyclohexyl]-3-oxo-dodecanamide]
[3]
  resistance to hydrolysis (enzymatic and spontaneous): resistant to the hydrolysis giving an open form (both enzymatic and spontaneous)
Human keratinocytes; Homo sapiens, Keratinocyte, read-out: relative EC50, inhibition of IL-8 secretion
  EC50: 0.111 µM
Human keratinocytes; IL-8 secretion
  maximum inhibition as % of the inhibition obtained with the reference compound betamethasone: 39%
E. coli K12 strain
  comparative survival of E. coli K12: No significant differences
Caco-2/TC7 cells [1]
  cytotoxicity (LDH), Caco-2/TC7: not cytotoxic at low concentrations
  LDH secretion at the higher concentrations: not as significant
Raw264.7 murine cells
  cytotoxicity (LDH), Raw264.7: not cytotoxic at low concentrations
Caco-2/TC7 cells [2]; 1-50 μM range
  activity on IL-1β-stimulated Caco-2/TC7 cells compared with natural 3-oxo-C12 HSL: an activity equivalent to that of the natural 3-oxo-C12 HSL

## CCCCCCCCCC(=O)CC(=O)Nc1cc(Cl)ccc1O [I-6, N-(5-chloro-2-hydroxyphenyl)-3-oxododecanamide]
E. coli K12 strain
  comparative survival of E. coli K12: No significant differences
Caco-2/TC7 cells [1]; [4]
  toxicity (LDH), Caco-2/TC7: not toxic
Raw264.7 murine cells; [4]
  toxicity (LDH), Raw264.7: not toxic
Caco-2/TC7 cells [2]; 10-100 μM range
  activity on IL-1β-stimulated Caco-2/TC7 cells compared with natural 3-oxo-C12 HSL: a significantly higher activity than that of the natural 3-oxo-C12 HSL
